The source made the active and inactive calls. The calls are words filed in the database; no cut-off is given here.
Key:
[1] = biological target: Matrix protein 2 (Influenza A virus) (UniProt P06821); type: cell membranes; details: Influenza A virus (A/udorn/1972(H3N2)); 100 uM
[2] = test system: Influenza A virus; experiment: Antiviral activity against Influenza A virus (A/PR/8/34(H1N1)) infected in MDCK cells assessed as reduction of virus-induced cytopathic effect after 72 hrs by microscopic analysis; type: functional, organism-based; details: A/Puerto Rico/8/1934(H1N1)
[3] = test system: Influenza A virus; experiment: Antiviral activity against Influenza A virus (A/PR/8/34(H1N1)) infected in MDCK cells assessed as cell viability after 72 hrs by MTS assay; type: functional, organism-based; details: A/Puerto Rico/8/1934(H1N1)
[4] = Antiviral activity against Influenza A virus (A/HK/7/87(H3N2)) infected in MDCK cells assessed as reduction of virus-induced cytopathic effect after 72 hrs by microscopic analysis; type: functional, cell-based, Influenza A virus (A/Hong Kong/7/1987(H3N2))
[5] = Antiviral activity against Influenza A virus (A/HK/7/87(H3N2)) infected in MDCK cells assessed as cell viability after 72 hrs by MTS assay; type: functional, cell-based, Influenza A virus (A/Hong Kong/7/1987(H3N2))
[6] = Antiviral activity against Influenza A virus (A/HK/7/87(H3N2)) infected in MDCK cells assessed as virus plaque reduction preincubated for 1 hr followed by compound wash out and incubated for 72 hrs by crystal violet staining; type: functional, cell-based, Influenza A virus (A/Hong Kong/7/1987(H3N2))
[7] = Antiviral activity against Influenza A virus (A/HK/7/87(H3N2)) infected in MDCK cells assessed as 2-log10 reduction in virus yield after 24 hrs by RT-qPCR analysis; type: functional, Influenza A virus (A/Hong Kong/7/1987(H3N2))
[8] = biological target: Matrix protein 2 (Influenza A virus, UniProt P06821); type: cell membranes, Influenza A virus (A/udorn/1972(H3N2))
Chain of Matrix protein 2 (P06821 whole entry): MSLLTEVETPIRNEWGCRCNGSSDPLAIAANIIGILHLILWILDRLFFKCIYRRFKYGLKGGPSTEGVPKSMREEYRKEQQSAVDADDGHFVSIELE

[9] = Cytotoxicity against MDCK cells assessed as cell viability after 72 hrs by MTS assay; type: cell-based, Canis lupus familiaris; details: dog
[10] = Cytotoxicity against MDCK cells assessed as alternations in cell morphology after 72 hrs; type: cell-based, Canis lupus familiaris; details: dog
[11] = test system: Influenza B virus; experiment: Antiviral activity against Influenza B virus (B/HK/5/72) infected in MDCK cells assessed as reduction of virus-induced cytopathic effect after 72 hrs by microscopic analysis; type: functional, cell-based; details: B/Hong Kong/05/1972

Chain of Matrix protein 2 (Influenza A virus) (P06821 whole entry): as above

SMILES | inhibition [1] [%] | EC50 [2] [µM] | EC50 [3] [µM] | EC50 [4] [µM] | EC50 [5] [µM] | EC50 [6] [µM] | EC99 [7] [µM] | IC50 [8] [µM] | CC50 at 72 h [9] [µM] | MCC at 72 h [10] [µM] | Activity [11]
Brc1ccc(CNC23CC4CC(CC(C4)C2)C3)s1 | 77 | – | – | – | – | – | – | – | – | – | –
NC12CC3CC(CC(C3)C1)C2 [AMANTADINE] | – | 30 | 34 | 1.4 | 1.4 | 0.14 | 0.72 | – | – | – | –
C1C[C@H]2[C@H]3[C@H]4[C@@H]1[C@@H]1[C@H]2[C@@H]2[C@H]3[C@@H]3CNC[C@@H]3[C@H]4[C@H]12 | 98.1 | > 100 | > 100 | > 100 | > 100 | 0.54 | > 2 | 2.1 | 3.7 | 4 | inactive
C1C2[C@@H]3[C@H]2[C@@H]2C1[C@H]3[C@@H]1CNC[C@@H]12 | 93.7 | > 100 | > 100 | > 100 | > 100 | 6.7 | 28 | 3.3 | > 100 | > 100 | inactive
N=C(N)N1CC2C3CCC(C4CCC43)C2C1 (stereo not given) | 94.5 | – | – | – | – | – | – | – | – | – | –
CC(N)C12CC3CC(CC(C3)C1)C2 (stereo not given) [RIMANTADINE] | – | 7.6 | 5.1 | 0.81 | 0.15 | 0.02 | 1.77 | – | – | – | –
N=C(N)N1C[C@@H]2[C@H](C1)[C@H]1C3CC4[C@H]([C@H]41)[C@@H]32 | 99 | > 100 | > 100 | > 100 | > 100 | > 100 | > 50 | 0.8 | 50 | > 100 | inactive
N=C(N)N1C[C@@H]2[C@H](C1)[C@@H]1[C@@H]3[C@H]4CC[C@H]5[C@@H]3[C@H]2[C@H]2[C@@H]5[C@@H]4[C@@H]12 | 90.6 | > 100 | > 100 | > 100 | > 100 | > 5 | > 2 | 3.7 | 4.6 | 7 | inactive
C1=C[C@H]2[C@H]3[C@H]4[C@@H]1[C@@H]1[C@H]2[C@@H]2[C@H]3[C@@H]3CNC[C@@H]3[C@H]4[C@H]12 | 96.4 | > 100 | > 100 | > 100 | > 100 | 0.37 | 3.45 | 2.6 | 11 | 20 | inactive
N=C(N)N1C[C@@H]2[C@H](C1)[C@@H]1[C@@H]3[C@H]4C=C[C@H]5[C@@H]3[C@H]2[C@H]2[C@@H]5[C@@H]4[C@@H]12 | 89.6 | > 100 | > 100 | > 100 | > 100 | > 5 | > 2 | 6.5 | 1.2 | 2 | inactive

Source: ChEMBL document CHEMBL3414500, “New polycyclic dual inhibitors of the wild type and the V27A mutant M2 channel of the influenza A virus with unexpected binding mode” (Eur J Med Chem, 2015)
